Source: patent publication US20220389031A1, “MACROCYCLIC SULFONYLAMIDE DERIVATIVES USEFUL AS NLRP3 INHIBITORS” (Inflazome Limited, priority 2019, published 2022)

Target: NLRP3 (Homo sapiens, UniProt Q96P20)
Experiment: THP-1 cells pyroptosis assay (LPS + nigericin, resazurin readout)
Assay type: cell-based
Set-up: Seed THP-1 cells (25,000 cells/well) containing 1.0 μg/ml LPS; host or cells: THP-1 cells
Conditions: NLRP3 inhibitory activity, 1.0 μg/ml LPS, 3 hrs compound, nigericin 5 μM 1 hr
Description: THP-1 cells (ATCC #TIB-202) were grown in RPMI containing L-glutamine (Gibco #11835) supplemented with 1 mM sodium pyruvate (Sigma #S8636) and penicillin (100 units/ml)/streptomycin (0.1 mg/ml) (Sigma #P4333) in 10% Fetal Bovine Serum (FBS) (Sigma #F0804). The cells were routinely passaged and grown to confluency (˜10^6 cells/ml). On the day of the experiment, THP-1 cells were harvested and resuspended into RPMI medium (without FBS). The cells were then counted and viability (>90%) checked by Trypan blue (Sigma #T8154). Appropriate dilutions were made to give a concentration of 625,000 cells/ml. To this diluted cell solution was added LPS (Sigma #L4524) to give a […] Final Assay Concentration (FAC). 40 μl of the final preparation was aliquoted into each well of a 96-well plate. The plate thus prepared was used for compound screening.
The following method step-by-step assay was followed for compound screening. • 1. Seed THP-1 cells (25,000 cells/well) containing 1.0 μg/ml LPS in 40 μl of RPMI medium (without FBS) in 96-well, black walled, clear bottom cell culture plates coated with poly-D-lysine (VWR #734-0317) • 2. Add 5 μl compound (8 points half-log dilution, with 10 μM top dose) or vehicle (DMSO 0.1% FAC) to the appropriate wells • 3. Incubate for 3 hrs at 37° C., 5% CO2 • 4. Add 5 μl nigericin (Sigma #N7143) (FAC 5 μM) to all wells • 5. Incubate for 1 hr at 37° C., 5% CO2 • 6. At the end of the incubation period, spin plates at 300×g for 3 mins and remove supernatant • 7. Then add 50 μl of resazurin (Sigma #R7017) (FAC 100 μM resazurin in RPMI medium without FBS) and incubate plates for a further 1-2 hrs at 37° C. and 5% CO2 • 8. Plates were read in an Envision reader at Ex 560 nm and Em 590 nm • 9. IC50 data is fitted to a non-linear regression equation (log inhibitor vs response-variable slope 4-parameters)

NLRP3, sequence (Q96P20 whole entry): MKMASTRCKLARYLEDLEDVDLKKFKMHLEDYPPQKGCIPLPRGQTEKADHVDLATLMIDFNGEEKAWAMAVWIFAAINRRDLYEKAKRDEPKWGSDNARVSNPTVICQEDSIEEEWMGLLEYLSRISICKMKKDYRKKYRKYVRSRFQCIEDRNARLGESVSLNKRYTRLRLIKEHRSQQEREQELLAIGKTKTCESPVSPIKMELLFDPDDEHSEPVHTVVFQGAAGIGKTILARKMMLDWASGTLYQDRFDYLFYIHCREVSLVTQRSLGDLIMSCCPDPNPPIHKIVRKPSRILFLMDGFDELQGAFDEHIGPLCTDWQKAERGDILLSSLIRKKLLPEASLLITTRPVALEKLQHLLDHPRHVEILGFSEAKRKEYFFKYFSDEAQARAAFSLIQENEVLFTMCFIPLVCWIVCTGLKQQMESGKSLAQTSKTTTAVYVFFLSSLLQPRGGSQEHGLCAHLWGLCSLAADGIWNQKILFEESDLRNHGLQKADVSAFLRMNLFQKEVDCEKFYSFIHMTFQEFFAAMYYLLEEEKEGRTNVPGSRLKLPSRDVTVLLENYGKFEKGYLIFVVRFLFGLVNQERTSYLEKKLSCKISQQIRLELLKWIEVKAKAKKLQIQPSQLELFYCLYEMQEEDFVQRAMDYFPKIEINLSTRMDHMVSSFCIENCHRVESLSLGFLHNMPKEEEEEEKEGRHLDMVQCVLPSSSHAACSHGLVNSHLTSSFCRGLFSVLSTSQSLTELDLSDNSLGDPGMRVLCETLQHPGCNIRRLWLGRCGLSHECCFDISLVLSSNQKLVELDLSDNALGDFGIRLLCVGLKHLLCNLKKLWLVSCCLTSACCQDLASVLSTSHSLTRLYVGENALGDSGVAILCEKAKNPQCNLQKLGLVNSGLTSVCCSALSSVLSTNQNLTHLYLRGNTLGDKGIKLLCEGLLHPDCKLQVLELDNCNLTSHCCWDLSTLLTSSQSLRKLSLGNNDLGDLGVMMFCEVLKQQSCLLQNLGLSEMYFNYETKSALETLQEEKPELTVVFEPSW

SMILES | IC50 [nM]
CC(C)c1cccc2c1CC(=O)NS(=O)(=O)c1nn(cc1F)CCOc1cc-2ccn1 [Example 8] | 1000 to 5000
CC1(C)COc2cc(ccn2)-c2ccc3c(c2CC(=O)NS(=O)(=O)c2nn1cc2F)CCC3 [Example 6, 16-fluoro-19,19-dimethyl-21-oxa-14λ^6-thia-13,18,23,27-tetraazapentacyclo[20.3.1.1^15,18.0^2,10.0^5,9]heptacosa-1(25),2,4,9,15(27),16,22(26),23-octaene-12,14,14-trione] | 5000 to 10000
CC(C)c1cc(F)cc2c1CC(=O)NS(=O)(=O)c1nn(c(CN3CCOCC3)c1F)C(C)(C)COc1cc-2ccn1 [Example 55, 4,13-difluoro-6-isopropyl-16,16-dimethyl-14-(morpholinomethyl)-11,11-dioxo-18-oxa-11λ^6-thia-10,15,20,24-tetrazatetracyclo[17.3.1.1^12,15.0^2,7]tetracosa-1(23),2(7),3,5,12(24),13,19,21-octaen-9-one] | 100 to 500
CC(C)c1cccc2c1CC(=O)NS(=O)(=O)c1cccc(c1)C(C)(C)COc1cc-2ccn1 [Example 28] | 1000 to 5000
COCc1cc2c(c(C(C)C)c1F)CC(=O)NS(=O)(=O)c1cnn(c1)C(C)(C)COc1cc-2ccn1 [Example 52, 5-fluoro-6-isopropyl-4-(methoxymethyl)-16,16-dimethyl-11,11-dioxo-18-oxa-11λ^6-thia-10,14,15,20-tetrazatetracyclo[17.3.1.1^12,15.0^2,7]tetracosa-1(23),2(7),3,5, 12(24),13,19,21-octaen-9-one] | 100 to 500
COCc1cc2c(c(C(C)C)c1)CC(=O)NS(=O)(=O)c1cnn(c1)C(C)(C)COc1cc-2ccn1 [Example 51, 6-isopropyl-4-(methoxymethyl)-16,16-dimethyl-11,11-dioxo-18-oxa-11λ^6-thia-10,14,15,20-tetrazatetracyclo[17-3-1-1^12,15.0^2,7]tetracosa-1(23),2(7),3,5,12(24),13,19, 21-octaen-9-one] | ≤ 100
CC(C)c1cccc2c1CC(=O)NS(=O)(=O)c1ccnn1CCCCCOc1cc-2ccn1 [Example 43, 6-(propan-2-yl)-22-oxa-11λ^6-thia-10,15,16,24-tetraazatetracyclo-[21.3.1.0^2,7.0^12,16]heptacosa-1(26),2(7),3,5,12,14,23(27),24-octaene-9,11,11-trione] | 1000 to 5000
CC(C)c1cc(C#N)cc2c1CC(=O)NS(=O)(=O)c1cnn(c1)C(C)(C)COc1cc-2ccn1 [Example 46, 6-isopropyl-16,16-dimethyl-9,11,11-trioxo-18-oxa-11λ^6-thia-10,14,15,20-tetrazatetra-cyclo[17.3.1.1^12,15.0^2,7]tetracosa-1(23),2(7),3,5,12(24),13,19,21-octaene-4-carbonitrile] | 1000 to 5000
CC(C)c1c(F)c(C#N)cc2c1CC(=O)NS(=O)(=O)c1cnn(c1)C(C)(C)COc1cc-2ccn1 [Example 48, 5-fluoro-6-isopropyl-16,16-dimethyl-9,11,11-trioxo-18-oxa-11λ^6-thia-10,14,15,20-tetrazatetracyclo[17-3-1-1^12,15.0^2,7]tetracosa-1(23),2(7),3,5,12(24),13,19,21-octaene-4-carbonitrile] | 1000 to 5000
CC(C)c1cc(F)cc2c1CC(=O)NS(=O)(=O)c1cnn(c1)C(C)(C)CNc1cc-2ccn1 [Example 56, 4-fluoro-6-isopropyl-16,16-dimethyl-11,11-dioxo-11λ^6-thia-10,14,15,18, 20-pentazatetracyclo[17.3.1.1^12,15.0^2,7]tetracosa-1(23),2(7),3,5,12(24),13,19,21-octaen-9-one] | ≤ 100
CC(C)c1cc(F)cc2c1CC(=O)NS(=O)(=O)c1cc(cc(C3CC3)c1)CCOc1cc-2ccn1 [Example 30, 14-cyclopropyl-4-fluoro-6-(propan-2-yl)-19-oxa-11λ^6-thia-10,21-diazatetracyclo[18.3.1.11^2,16.0^2,7]pentacosa-1(23),2(7),3,5,12(25),13,15,20(24),21-nonaene-9,11,11-trione] | 500 to 1000
CC(C)c1cc(F)cc2c1CC(=O)NS(=O)(=O)c1nn(c(C(=O)N3CCN(C)CC3)c1F)C(C)(C)COc1cc-2ccn1 [Example 54, 4,13-difluoro-6-isopropyl-16,16-dimethyl-14-(4-methylpiperazine-1-carbonyl)-11,11-dioxo-18-oxa-11λ^6-thia-10,15,20,24-tetrazatetracyclo[17.3.1.1^12,15.0^2,7]-tetracosa-1(23),2(7),3,5,12(24),13,19,21-octaen-9-one] | 500 to 1000
CC(C)c1cc(F)cc2c1CC(=O)NS(=O)(=O)c1cc(ccc1F)CCOc1cc-2ccn1 [Example 26] | 1000 to 5000
CC(C)c1cccc2c1CC(=O)NS(=O)(=O)c1cccc(c1)CCOc1cc-2ccn1 [Example 7] | 1000 to 5000
CC(C)c1cc(OC(F)F)cc2c1CC(=O)NS(=O)(=O)c1cnn(c1)C(C)(C)COc1cc-2ccn1 [Example 47, 4-(difluoromethoxy)-6-isopropyl-16,16-dimethyl-11,11-dioxo-18-oxa-11λ^6-thia-10,14,15,20-tetrazatetracyclo[17-3-1-1^12,15.0^2,7]tetracosa-1(23),2(7),3,5,12(24), 13,19,21-octaen-9-one] | 100 to 500
CC(C)c1cc(F)cc2c1CC(=O)NS(=O)(=O)c1nn(cc1C(=O)N(C)C)C(C)(C)COc1cc-2ccn1 [Example 50, 4-fluoro-6-isopropyl-N,N,16,16-tetramethyl-9,11,11-trioxo-18-oxa-11λ^6-thia-10,15,20,24-tetrazatetracyclo[17.3.1.1^12,15.0^2,7]tetracosa-1(23),2(7),3,5,12(24),13,19, 21-octaene-13-carboxamide] | 5000 to 10000
CC(C)c1cc(F)cc2c1CC(=O)NS(=O)(=O)c1nn(c(CN3CCN(C)CC3)c1F)C(C)(C)COc1cc-2ccn1 [Example 53, 4,13-difluoro-6-isopropyl-16,16-dimethyl-14-[(4-methylpiperazin-1-yl)-methyl]-11,11-dioxo-18-oxa-11λ^6-thia-10,15,20,24-tetrazatetracyclo[17.3.1.1^12,15.0^2,7]-tetracosa-1(23),2(7),3,5,12(24),13,19,21-octaen-9-one] | ≤ 100
CC(C)c1cc(F)cc2c1CC(=O)NS(=O)(=O)c1cccnc1OCCCOc1cc-2ccn1 [Example 18] | 1000 to 5000
Cc1nn2c(C)c1S(=O)(=O)NC(=O)Cc1c(cc(F)cc1C(C)C)-c1ccnc(c1)OCC2(C)C [Example 23] | 5000 to 10000
CC(C)c1cccc2c1CC(=O)NS(=O)(=O)N1CCCC(C1)N(C)CCOc1cc-2ccn1 (centres unmarked) [Example 45, 17-methyl-6-(propan-2-yl)-20-oxa-11λ^6-thia-10,12,17,22-tetraaza-tetracyclo[19.3.1.1^12,16.0^2,7]hexacosa-1(24),2(7),3,5,21(25),22-hexaene-9,11,11-trione] | 1000 to 5000
CC(C)c1c(F)c(OC(F)F)cc2c1CC(=O)NS(=O)(=O)c1cnn(c1)C(C)(C)COc1cc-2ccn1 [Example 49, 4-(difluoromethoxy)-5-fluoro-6-isopropyl-16,16-dimethyl-11,11-dioxo-18-oxa-11λ^6-thia-10,14,15,20-tetrazatetracyclo[17.3.1.1^12,15.0^2,7]tetracosa-1(23),2(7),3,5, 12(24),13,19,21-octaen-9-one] | 500 to 1000
CC(C)c1cc(F)cc2c1CC(=O)NS(=O)(=O)c1nn(cc1F)CCOc1cc-2ccn1 [Example 14] | 1000 to 5000
O=C1Cc2c(ccc3c2CCC3)-c2ccnc(c2)OCCc2cccc(c2)S(=O)(=O)N1 [Example 9] | 5000 to 10000
